According to patent US20160202242A1, “CELL DEATH-INDUCING AGENT, CELL GROWTH-INHIBITING AGENT, AND PHARMACEUTICAL COMPOSITION FOR TREATMENT OF DISEASE CAUSED BY ABNORMAL CELL GROWTH” (Nitto Denko Corporation, priority 2014, published 2016):
d = 2'-deoxy (DNA); r = 2'-OH (RNA)

Columns and labels:
Assay type in all cases: cell-based, human
P21 mRNA [1] = test: P21 mRNA level quantified every day to the 4th day after siRNA addition; conditions: A549 or MIA PaCa-2 cells, siRNA 50 nM
Experimental: (§1) As examples of cancer cells, 1×10^5 M7609 cells (human colorectal cancer cells having KRAS mutation) and PANC-1 cells (human pancreatic cancer cells having KRAS mutation) were inoculated to 6 cm Petri dishes and cultured for 18 hours in Roswell Park Memorial Institute 1640 (RPMI 1640, Sigma-Aldrich Corp.) supplemented with 10% fetal bovine serum (FBS) and 0.5% L-glutamine. The culture conditions were 37° C. and 5% CO2, unless otherwise specified. Moreover, as an example of cancer cells, 0.5×10^5 A549 cells (human lung cancer cells having KRAS mutation) were inoculated to a 6 cm Petri dish and cultured for 18 hours in a Dulbecco's modified Eagle's medium (DMEM, Sigma-Aldrich Corp.) supplemented with 10% FBS and 1% L-glutamine. Furthermore, as an example of cancer cells, 1×10^5 MIA PaCa-2 cells (human pancreatic cancer cell having KRAS mutation) were inoculated to a 6 cm Petri dish and cultured for 18 hours in DMEM supplemented with 10% FBS and 1% L-glutamine. […]
Moreover, as for the case where GST-π siRNA or control siRNA at a final concentration of 50 nM was added to each of the Petri dishes containing the A549 cells or the MIA PaCa-2 cells, the P21 mRNA level was similarly quantified every day from the day of addition of GST-π siRNA or control siRNA to the 4th day.

[2] = system: PANC-1, MIA PaCa-2, or A549 cells; test: Number of cells counted after 5 days of culture, single siRNA transfection; conditions: siRNA 50 nM plus control siRNA 50 nM
Experimental: as §1
Meanwhile, the influence of GST-π siRNA and/or P21 siRNA on the number of cells was tested. […] After culture for 5 days without the replacement of the medium, the cells were dissociated and collected from the Petri dish by trypsin treatment, and the number of cells was counted.

[3] = system: A549 cells, MIA PaCa-2 cells, PANC-1 cells, and HCT116 cells; test: Phase difference images of cells after knockdown three times; conditions: knocked down three times; 7 days after inoculation
Experimental: As examples of cancer cells, 1×10^5 M7609 cells (human colorectal cancer cells having KRAS mutation) and PANC-1 cells (human pancreatic cancer cells having KRAS mutation) were inoculated to 6 cm Petri dishes and cultured for 18 hours in Roswell Park Memorial Institute 1640 (RPMI 1640, Sigma-Aldrich Corp.) supplemented with 10% fetal bovine serum (FBS) and 0.5% L-glutamine. The culture conditions were 37° C. and 5% CO2, unless otherwise specified. […]
First, for the PANC-1 cells, the MIA PaCa-2 cells, or the HCT116 cells, GST-π siRNA and P21 siRNA each at a final concentration of 25 nM, or GST-π siRNA or P21 siRNA at a final concentration of 25 nM (all added with control siRNA at a final concentration of 25 nM) were added to each of the Petri dishes, while for the A549 cells, GST-π siRNA and P21 siRNA each at a final concentration of 50 nM, or GST-π siRNA or P21 siRNA at a final concentration of 50 nM (added with control siRNA at a final concentration of 50 nM) were added to each of the Petri dishes. […] Seven days after the cell inoculation, the cells were dissociated and collected from the Petri dish by trypsin treatment, and the number of cells was counted. […]

P21 mRNA [4] = test: P21 mRNA level by quantitative PCR 1 day after siRNA transfection; conditions: PANC-1, MIA PaCa-2, or A549 cells, GST-π siRNA 50 nM or 100 nM, vs control siRNA
Experimental: as §1, with “L-glutamine.” for “L-glutamine. Furthermore, as an example of cancer cells, 1×10^5 MIA PaCa-2 cells (human pancreatic cancer cell having KRAS mutation) were inoculated to a 6 cm Petri dish and cultured for 18 hours in DMEM supplemented with 10% FBS and 1% L-glutamine.”
GST-π siRNA and P21 siRNA each at a final concentration of 50 nM, GST-π siRNA or P21 siRNA at a final concentration of 50 nM (both added with control siRNA at a final concentration of 50 nM), or GST-π siRNA at a final concentration of 100 nM (without the addition of control siRNA) were added to each of the Petri dishes containing the PANC-1, MIA PaCa-2, or A549 cells. […] After culture for 1 day without the replacement of the medium, the GST-π mRNA level and the P21 mRNA level were quantified by quantitative PCR using 7300 Real Time PCR System (Applied Biosystems, Inc.).

M7609 cells = test: Senescence beta-galactosidase staining 13 days after inoculation, GST-π knocked down three times; conditions: GST-π siRNA 30 nM added three times
Experimental: As examples of cancer cells, 1×10^5 M7609 cells (human colorectal cancer cells having KRAS mutation) and PANC-1 cells (human pancreatic cancer cells having KRAS mutation) were inoculated to 6 cm Petri dishes and cultured for 18 hours in Roswell Park Memorial Institute 1640 (RPMI 1640, Sigma-Aldrich Corp.) supplemented with 10% fetal bovine serum (FBS) and 0.5% L-glutamine. The culture conditions were 37° C. and 5% CO2, unless otherwise specified. Moreover, as an example of cancer cells, 0.5×10^5 A549 cells (human lung cancer cells having KRAS mutation) were inoculated to a 6 cm Petri dish and cultured for 18 hours in a Dulbecco's modified Eagle's medium (DMEM, Sigma-Aldrich Corp.) supplemented with 10% FBS and 1% L-glutamine. Furthermore, as an example of cancer cells, 1×10^5 MIA PaCa-2 cells (human pancreatic cancer cell having KRAS mutation) were inoculated to a 6 cm Petri dish and cultured for 18 hours in DMEM supplemented with 10% FBS and 1% L-glutamine. Furthermore, as an example of cancer cells, 0.5×10^5 HCT116 cells (human colorectal cancer cells having KRAS mutation) were inoculated to a 6 cm Petri dish and cultured for 18 hours in McCoy's 5A Medium (McCoy, Sigma-Aldrich Corp.) supplemented with 10% FBS and 0.5% L-glutamine.
Whether the cell senescence as shown in FIGS. 6 to 9 was could be induced by knocking down GST-π was tested using the M7609 cells. […]

Substance | expression level of P21 mRNA over time (P21 mRNA [1]) | number of cells, each siRNA alone [2] | cell morphology / cell senescence-like phenotype in phase difference image [3] | amount of P21 mRNA (P21 mRNA [4]) | cell senescence (flat and large cells, blue color development by galactosidase staining) (M7609 cells)
GST-π siRNA: siRNA against GST-π; sense GGGAGGCAAGACCUUCAUUtt (SEQ ID NO: 31), antisense AAUGAAGGUCUUGCCUCCCtg (SEQ ID NO: 32) (sense GGGAGGCAAGACCUUCAUUTT; antisense AAUGAAGGUCUUGCCUCCCTG; sugars from the 5' end r19 d2, backbone not given here) | increased over time | the number of cells cannot be decreased with respect to the number of inoculated cells, though cell growth is inhibited | became flat and large cells | increased | cell senescence was evoked
P21 siRNA: siRNA against P21; sense UCCUAAGAGUGCUGGGCAUtt (SEQ ID NO: 33), antisense AUGCCCAGCACUCUUAGGAtt (SEQ ID NO: 34) (sense UCCUAAGAGUGCUGGGCAUTT; antisense AUGCCCAGCACUCUUAGGATT; sugars from the 5' end r19 d2, backbone not given here) |  | the number of cells cannot be decreased with respect to the number of inoculated cells, though cell growth is inhibited |  |  | 
